# Entries after “also recorded” stand apart in the source; their conditions may differ.
# What was measured:
# [1] = set-up: method as in Pietrzik et al., 2000 unpublished data; conditions: single equimolar dose; 23 women; mean (SD); ref Pietrzik et al., 2000 unpublished data; cited from earlier work
# [2] = Indirect comparison of AUCs of plasma (6S)-5-Methyl-THF between the 2019 and 2009 studies; conditions: female, human, in vivo, 451 µg
# Experimental: (§1) We used individual data from the two studies to calculate the AUC0–8 h of plasma (6S)-5-Methyl-THF. […] We extrapolated plasma concentrations of (6S)-5-Methyl-THF for the missing time points in the corresponding studies by calculating the mean of the concentrations at the two neighboring time points (=before and after the missing concentrations). […] The incremental AUCs of plasma (6S)-5-Methyl-THF were calculated and were expressed as nmol/L*h.
# [3] = 2009 pharmacokinetic study (Prinz-Langenohl et al.): plasma (6S)-5-Methyl-THF by LC-MS-MS after a single oral dose in women; conditions: AUC0-8h of plasma (6S)-5-Methyl-THF; individual ratios; mean (SD)
# Experimental: Plasma concentrations of (6S)-5-Methyl-THF were selectively measured in both studies.
# as §1
# The data analyses were conducted using individual data from the 24 subjects in the present pharmacokinetic study and 21 women (3 women were excluded due to implausible results) from the study of Prinz-Langenohl et al. [13].
# [4] = Pharmacokinetic study (present, 2019): plasma (6S)-5-Methyl-THF by UPLC-MS/MS after a single oral dose
# Experimental: Both folate compounds were provided in odorless gelatin capsules of identical appearance (Apotheke Roter Ochsen AG, Schaffhausen, Switzerland). The label carried a random ID number and the kinetic day 1 and day 2.
# The randomization was carried out on kinetic day 1 by means of consecutive numbering and was stratified by sex. On the kinetic days, a permanent venous catheter was inserted in the morning. Blood (8 mL) was collected under fasting conditions (at t0) into EDTA-K^+-containing tubes. […] The study product (1 capsule) was administered with 150 mL water by the study personnel to ensure compliance. A folate-free protein drink (Scandishake® Mix, Nutricia GmbH, Erlangen, Germany) was dissolved in water and served at 1 h, 3 h and 6 h after the product intake. The drink provided 430 kcal per serving. On each kinetic day, 9 blood samples were collected between t0 and t8 h (8 mL each). […]
# Plasma total folate levels were measured on the kinetic days by using Cobas autoanalyser (Elecsys®, Roche, Mannheim, Germany) at the Department of Clinical Chemistry, Saarland University Hospital, Germany. […] All plasma samples collected from the same subject (18 samples on both study visits) were prepared and measured in the same run. […]
# Incremental areas under the observed concentration-time curve above baseline were calculated applying the trapezoidal rule and were expressed as nmol/L*h.
# [5] = rated as unrelated to the study product
# Experimental: On the kinetic days, a permanent venous catheter was inserted in the morning. Blood (8 mL) was collected under fasting conditions (at t0) into EDTA-K^+-containing tubes. […] The study product (1 capsule) was administered with 150 mL water by the study personnel to ensure compliance. […] On each kinetic day, 9 blood samples were collected between t0 and t8 h (8 mL each). The diary records including documentation of adverse events were returned during the last blood collection session after 8 h of the intake.
# [6] = Pharmacokinetic study (present, 2019): plasma unmetabolized folic acid by UPLC-MS/MS after a single oral dose; conditions: over 8 h; limit of detection 0.20 nmol/L
# Experimental: (§2) The label carried a random ID number and the kinetic day 1 and day 2.
# (§3) The randomization was carried out on kinetic day 1 by means of consecutive numbering and was stratified by sex. On the kinetic days, a permanent venous catheter was inserted in the morning. Blood (8 mL) was collected under fasting conditions (at t0) into EDTA-K^+-containing tubes. […] The study product (1 capsule) was administered with 150 mL water by the study personnel to ensure compliance. A folate-free protein drink (Scandishake® Mix, Nutricia GmbH, Erlangen, Germany) was dissolved in water and served at 1 h, 3 h and 6 h after the product intake. The drink provided 430 kcal per serving. On each kinetic day, 9 blood samples were collected between t0 and t8 h (8 mL each). The diary records including documentation of adverse events were returned during the last blood collection session after 8 h of the intake. After a washout period of 2 weeks (only two participants returned at 11 and 17 days) and during the second study visit (kinetic day 2), the other study compound was administered following exactly the same procedure.
# (§4) Plasma total folate levels were measured on the kinetic days by using Cobas autoanalyser (Elecsys®, Roche, Mannheim, Germany) at the Department of Clinical Chemistry, Saarland University Hospital, Germany. The CV% of the total folate assay was <6%. All plasma samples collected from the same subject (18 samples on both study visits) were prepared and measured in the same run. All blood samples were primary aliquots frozen at −70 °C for no longer than 3 months.
# clinical = conditions: both, human, in vivo
# Experimental: as §2, §3, §4
concentration at 0.5 h (clinical) [nM],concentration at 1 h (clinical) [nM],Tmax (clinical; po) [min],SMILES,Incremental AUC0–8 h of plasma total folate [1],AUC(0-t) [2] [µM·h],AUC Ratio: AUCs (6S)-5-Methyl-THF-Ca/ folic acid 2009 [3],"AUC Ratio: AUCs of (6S)-5-Methyl-THF-Na/ AUC folic acid 2019 ([4]; AUC0-8h of plasma (6S)-5-Methyl-THF, individual ratios, mean (SD))",Maximum concentrations of plasma (6S)-5-Methyl-THF reached earlier compared to folic acid ([4]; difference of Tmax versus folic acid) [min],Headaches reported on kinetic day 1 after intake [5],Plasma unmetabolized folic acid levels after intake [6]
,,,"CN1c2c(nc(N)[nH]c2=O)NC[C@@H]1CNc1ccc(C(=O)N[C@@H](CCC(=O)O)C(=O)O)cc1 [(6S)-5-Methyl-THF-Ca, (6S)-5-Methyltetrahydrofolic acid]",85.0 (21.9) nmol/L*h,0.136,2.29 (0.76),,,,
,,,"CN1c2c(nc(N)[nH]c2=O)NC[C@@H]1CNc1ccc(C(=O)N[C@@H](CCC(=O)O)C(=O)O)cc1 [(6S)-5-Methyl-THF-Na, (6S)-5-Methyltetrahydrofolic acid]",,,,2.52 (1.02),60,Three subjects reported headaches,below the limit of detection; also recorded: remained undetectable
2.5,4.7,30 to 60,"Nc1nc2ncc(CNc3ccc(C(=O)N[C@@H](CCC(=O)O)C(=O)O)cc3)nc2c(=O)[nH]1 [folic acid, pteroylmonoglutamic acid]",50.3 (20.1) nmol/L*h,,,,,,

# Source: PMC7760477 (Nutrients, 2020)
